Where two headings read alike, the source gives them in different places.
Experiments:
[1] = system: HEY ovarian cancer cells; assay: MTT cytotoxicity assay, HEY; type: cell-based, human; conditions: read-out: 50% Cytotoxic concentration (IC50)
Protocol: The sensitivity of a panel of seven human cancer cell lines to SC144 was assessed by MTT-assay. […] The sensitivity towards SC144 was time- and dose-dependent.
Cytotoxicity was assessed by a 3-(4,5-dimethylthiazol-2-yl)-2,5-diphenyltetrazolium bromide assay as previously described (Carmichael et al. (1987) Cancer Res. 47:936-42). Briefly, cells were seeded in 96-well microtiter plates (PC3 and DU145 at 5,000 cells/well and LNCaP at 10,000 cells/well; breast and ovarian cells at 4,000 cells/well) and allowed to attach. Cells were subsequently treated with a continuous exposure to the corresponding drug for 72 hours. A 3-(4,5-dimethylthiazol-2-yl)-2,5-diphenyltetrazolium bromide solution (at a final concentration of 0.5 mg/mL) was added to each well and cells were incubated for 4 hours at 37° C. After removal of the medium, DMSO was added and the absorbance was read at 570 nm. All assays were done in triplicate. The IC50 was then determined for each drug from a plot of log(drug concentration) versus percentage of cell kill.

[2] = system: MDA-MB-435 cells; assay: MTT assay, continuous drug exposure for 48 hours (Table 3); type: cell-based, human; conditions: for IC80: MDA-MB-435, read-out: CC80
[3] = Homo sapiens, HEY ovarian cancer cells

SMILES | IC50 [1, 3] [µM] | also measured
O=C(CSc1nc2ccccc2c(=O)n1CC1CCCO1)NNC(=O)c1ccccc1O (centres unmarked) | 2 | –
N.N.[Cl][Pt][Cl] [Cisplatin] | – | CC50 [2]: 39 ± 1.41 µM; CC80 [2]: 71 ± 1.4 µM
COc1cc([C@@H]2c3cc4c(cc3[C@@H](O[C@@H]3O[C@@H]5CO[C@@H](C)O[C@H]5[C@H](O)[C@H]3O)[C@H]3COC(=O)[C@H]23)OCO4)cc(OC)c1O [Etoposide] | – | CC50 ([2]; Homo sapiens, MDA-MB-435): 52.5 ± 3.5 µM; IC80 ([2]; Homo sapiens): 300 ± 106 µM
O=C1c2c(O)ccc(O)c2C(=O)c2c(NCCNCCO)ccc(NCCNCCO)c21 [Mitoxantrone] | – | CC50 ([2]; Homo sapiens, MDA-MB-435): 4.5 ± 1.4 µM; IC80 ([2]; Homo sapiens): 7.3 ± 0.35 µM
CCCn1c(=O)c(C(=O)NNC(=O)c2ccccc2)c(O)c2ccccc21 [SC201] | 2 | –
CCCn1c(=O)c(C(=O)NNC(=O)CC(=O)OCC)c(O)c2ccccc21 [SC202] | – | IC50 ([1]; HEY ovarian cancer cells): 1 µM
CCn1c(=O)c(C(=O)NNC(=O)Cc2ccccc2)c(O)c2ccccc21 [SC203] | 6 | –
COCc1c(C(=O)NNC(=O)c2ccccc2F)nnn1-c1nonc1N [SC204] | – | IC50 ([1]; HEY ovarian cancer cells): 1 µM
CCn1c(=O)c(C(=O)NNC(=O)c2ccc(C)cc2)c(O)c2ccccc21 [SC205] | 6 | –
CCCn1c(=O)c(C(=O)NNC(=O)c2ccc(C)cc2)c(O)c2ccccc21 [SC206] | – | IC50 ([1]; HEY ovarian cancer cells): 1 µM
CCn1c(=O)c(C(=O)NNC(=O)c2cccc(C)c2)c(O)c2ccccc21 [SC207] | 6 | –
O=C(CSc1nnc(-c2ccccc2O)o1)NNC(=O)Cc1ccccc1 [SC208] | 4 | –
CC1CCN(S(=O)(=O)c2ccc(C(=O)NNC(=O)C3CC3)cc2)CC1 [SC209] | 8 | –
O=C(COc1ccc2ccccc2c1)NNC(=O)c1cc2ccccc2cc1O [SC210] | – | IC50 ([1]; HEY ovarian cancer cells): 1 µM
CCc1cc2ccccc2nc1SCC(=O)NNC(=O)c1ccccc1 [SC211] | 10 | –
CSc1nc(NNC(=O)c2ccco2)c2c3c(sc2n1)COC(C)(C)C3 [SC212] | – | IC50 ([1]; HEY ovarian cancer cells): 1 µM
Cc1cccc(C(=O)NNC(=O)CSc2nc3ccccc3cc2C)c1 [SC213] | 12 | –
CCn1c(=O)c(C(=O)NNC(=O)c2ccccc2[N+](=O)[O-])c(O)c2ccccc21 [SC214] | – | IC50 ([1]; HEY ovarian cancer cells): 1 µM
Cc1cc(C)cc(OCC(=O)NNC(=O)c2cc3ccccc3oc2=O)c1 [SC215] | 12 | –
CCn1c(=O)c(C(=O)NNC(=O)c2ccc([N+](=O)[O-])cc2)c(O)c2ccccc21 [SC216] | 5 | –
C=C(C)CNC(=S)NNC(=O)CCn1c2ccccc2c2ccccc21 [SC217] | 4 | –

SMILES | IC50 [1, 3] [µM] | also measured
CCn1c(=O)c(C(=O)NNC(=O)c2cccc([N+](=O)[O-])c2)c(O)c2ccccc21 [SC218] | 4 | –
O=C(NNC(=O)c1c(O)c2ccccc2[nH]c1=O)c1ccccc1[N+](=O)[O-] [SC219] | 2 | –
CC1=C(C)C2c3nnc(SCC(=O)NNC(=O)c4ccco4)n3C=NC2S1 (centres unmarked) [SC220] | 4 | –
O=C(NNC(=O)c1c(O)c2ccccc2[nH]c1=O)c1cccc([N+](=O)[O-])c1 [SC221] | 4 | –
O=C(CSc1nc2ccccc2cc1Cc1ccccc1)NNC(=O)c1ccco1 [SC222] | 8 | –
COc1ccc(C(=O)NNC(=O)c2cc3ccccc3oc2=O)cc1OC [SC223] | 4 | –
O=C(CSc1nc(C2CC2)nc2sc3c(c12)CCCC3)NNC(=O)c1ccco1 [SC224] | 4 | –
CCn1c(=O)c(C(=O)NNC(=O)c2ccccc2F)c(O)c2ccccc21 [SC225] | 2 | –
COc1ccc(C(=O)NNC(=O)CSc2ncnc3sc4c(c23)CCCC4)cc1 [SC226] | 5 | –
CCc1cc2ccc(C)cc2nc1SCC(=O)NNC(=O)c1ccco1 [SC227] | 6 | –
CCC(=O)NNc1nc2c(c(=O)n1Cc1ccccc1)C1(CCCC1)Cc1ccccc1-2 [SC228] | 6 | –
CC1(C)Cc2c(sc3nc(NNC(=O)c4ccccc4)[nH]c(=O)c23)CO1 [SC229] | 8 | –
Cc1cccc(C(O)(C(=O)NNC(=O)/C(O)=C/C(=O)c2ccccc2)c2cccc(C)c2)c1 [SC230] | – | IC50 ([1]; Homo sapiens): 3 µM
CCCCCCCC(=O)NNC(=O)c1c(O)c2ccccc2n(CC)c1=O [SC231] | 3 | –
CC1=C(C)C2c3nnc(SCC(=O)NNC(=O)c4ccco4)n3C(C(C)C)=NC2S1 (centres unmarked) [SC232] | 6 | –
CCCCCCCCC(=O)NNC(=O)c1c(O)c2ccccc2n(C)c1=O [SC233] | 5 | –
Cc1cccc(C(=O)NNC(=O)CSc2nc(-c3ccccc3)nc3ccc(F)cc23)c1 [SC234] | 8 | –
CCCCCCC(=O)NNC(=O)c1c(O)c2ccccc2n(CCC)c1=O [SC235] | 7 | –
CCCCCCCCCC(=O)NNC(=O)c1c(O)c2ccccc2[nH]c1=O [SC237] | 7 | –
O=C(NNC(=O)c1cc2ccccc2oc1=O)c1ccc(S(=O)(=O)N2CCCCC2)cc1 [SC238] | 3 | –
O=C(NNC(=O)c1cc2ccccc2oc1=O)c1ccc(S(=O)(=O)N2CCOCC2)cc1 [SC239] | 3 | –

SMILES | IC50 [1, 3] [µM] | also measured
Cc1ccc(-n2c(SCC(=O)NNC(=O)c3ccccc3O)nnc2-c2ccccc2)cc1 [SC240] | 5 | –
O=C(CSc1nnc(-c2ccccc2)n1Cc1ccccc1)NNC(=O)c1ccccc1O [SC241] | 5 | –
COc1ccc2nc(C)cc(SCC(=O)NNC(=O)COc3cccc4ccccc34)c2c1 [SC242] | 5 | –
Cc1ccc(C(=O)n2nnc3c(NNC(=O)COc4ccc(F)cc4)nc(C4CC4)nc32)cc1 [SC243] | 6 | –
O=C(CSC1=NNC2C3=C(N=C(C4CC4)N12)S1=C(CCCC1)C3)NNC(=O)C1C=CC=CO1 (centres unmarked) [SC244] | 15 | –
Cc1ccc(-n2c(SCC(=O)NNC(=O)c3ccccc3O)nnc2-c2ccccc2O)cc1 [SC245] | – | IC50 ([1]; HEY ovarian cancer cells): 1 µM
O=C(CSc1nnc(-c2ccccc2O)n1Cc1ccccc1)NNC(=O)c1ccccc1O [SC246] | – | IC50 ([1]; HEY ovarian cancer cells): 1 µM
O=C(CSc1nnc2c3c4c(sc3ncn12)CCCC4)NNC(=O)c1ccco1 [SC247] | 14 | –
O=C(CSc1nnc(Cc2ccccc2)n1-c1cccc(Cl)c1)NNC(=O)c1ccccc1O [SC248] | 2 | –
Cc1ccc(-n2c(SCC(=O)NNC(=O)Cc3ccccc3)nc3sc4c(c3c2=O)CCCC4)cc1 [SC249] | 2 | –
Cc1ccc(C(=O)NNC(=O)CSc2nnc3c4c5c(sc4nc(C4CC4)n23)CCCC5)cc1 [SC250] | 2 | –
O=C(NNC(=O)c1cccs1)c1ccco1 [SC251] | 15 | –
O=C(NNC(=O)c1cccs1)c1ccccn1 [SC252] | 16 | –
CCn1c(NNC=O)nc2c1c(=O)[nH]c(=O)n2C [SC253] | 12 | –
Cc1occc1C(=O)NNC(=O)c1ccccc1F [SC254] | 17 | –
O=C(NNC(=O)c1ccccc1O)c1cccs1 [SC255] | 14 | –
CCC(=O)NNC(=O)c1c(O)c2ccccc2[nH]c1=O [SC256] | 3 | –
O=C(NNC(=O)c1cccs1)c1ccc(O)c(O)c1 [SC257] | 2 | –
O=C(/C=C/NNC(=O)c1ccccc1O)c1ccccc1 [SC258] | 2 | –
O=C(O)CCCC(=O)NNC(=O)c1ccccc1Cl [SC259] | 18 | –
COc1ccccc1C(=O)NNC(=O)c1ccccc1O [SC260] | 10 | –

SMILES | IC50 [1, 3] [µM] | also measured
O=C(NNC(=O)c1cccc2ccccc12)c1cccs1 [SC261] | 11 | –
O=C(NNC(=O)c1cccs1)c1ccc2ccccc2c1 [SC262] | 11 | –
O=C(O)/C=C/C(=O)NNC(=O)c1cc(-c2ccccc2)[nH]n1 [SC263] | 5 | –
O=C(NNC1=CS(=O)(=O)c2ccccc21)c1ccccc1 [SC264] | 5 | –
O=C(NNC1=NS(=O)(=O)c2ccccc21)c1ccncc1 [SC265] | 5 | –
O=C(NNC(=O)c1cc2ccccc2oc1=O)c1ccncc1 [SC266] | 7 | –
O=C(NNC(=O)c1c(O)c2ccccc2[nH]c1=O)c1ccccc1 [SC268] | 10 | –
O=C(CCc1ccccc1)NNC(=O)c1ccc2ccccc2c1O [SC270] | 5 | –
O=C(COc1ccc2ccccc2c1)NNC(=O)c1ccccc1O [SC271] | 6 | –
COc1cccc(C(=O)NNC(=O)c2ccc3ccccc3c2O)c1 [SC272] | 7 | –
COc1ccccc1C(=O)NNC(=O)c1ccc2ccccc2c1O [SC273] | 11 | –
COc1ccccc1C(=O)NNC(=O)c1cc2ccccc2cc1O [SC274] | 11 | –
COc1ccc(C(=O)NNC(=O)c2ccc3ccccc3c2O)cc1 [SC275] | 12 | –
COc1ccc(C(=O)NNC(=O)c2cc3ccccc3cc2O)cc1 [SC276] | 13 | –
O=C(Cc1ccccc1)NNC(=O)c1c(O)c2ccccc2[nH]c1=O [SC277] | 14 | –
Cc1ccc(C(=O)NNC(=O)c2c(O)c3ccccc3[nH]c2=O)cc1 [SC278] | 13 | –
O=C(NNC(=O)c1c(O)c2ccccc2[nH]c1=O)c1ccccc1F [SC279] | 6 | –
O=C(CCl)NNc1nc(-c2ccccc2)c2cc(Cl)ccc2n1 [SC280] | 6 | –
CC(=O)O[C@H]1C(=O)[C@@]2(C)[C@H]([C@H](OC(=O)c3ccccc3)[C@]3(O)C[C@H](OC(=O)[C@H](O)[C@@H](NC(=O)c4ccccc4)c4ccccc4)C(C)=C1C3(C)C)[C@]1(OC(C)=O)CO[C@@H]1C[C@@H]2O [Taxol] | – | CC50 ([2]; Homo sapiens, MDA-MB-435): 0.04 ± 0.003 µM; IC80 ([2]; Homo sapiens): 0.07 ± 0.01 µM

Source: patent publication US20110034472A1, “Novel Compounds for Treatment of Cancer and Disorders Associated With Angiogenesis Function” (UNIVERSITY OF SOUTHERN CALIFORNIA, priority 2004, published 2011)
